The subject of data set [1] is K-rasLA1 murine model spontaneously developing bronchioloalveolar carcinoma. The data set is described as follows: Targeting of spontaneous tumors, ex vivo lung fluorescence. As to conditions: K-rasLA1 mice, 200 μl at 10 nmol/ml i.v. The data set is classed as in vivo, mouse. As to the method:
On the K-rasLA1 murine model spontaneously developing bronchioloalveolar carcinoma, tumor development is controlled by X-ray scanner synchronized on respiration before injection of the product to be tested. The compound of Example 3 (200 μl) solubilized at 10 nmol/ml in phosphate buffer solution (PBS) is then injected intravenously.
After the animals are euthanized, the lungs are taken to be fixed by tracheal injection of neutral formalin. Acquisition of fluorescence ex vivo is carried out using a Caliper IVIS Lumina II apparatus (ex=680 nm; em=720 nm). A photograph of the excised lung is also taken.

Data set [2] concerns U87MG human glioblastoma model. The data set is described as follows: Targeting of heterotopically-transplanted tumors, fluorescence imaging. The format is in vivo, mouse. As to conditions: U87MG xenograft in Swiss nude mice, 2 nmol i.v., t24h. The procedure: (§1) In the right rear paw of Swiss nude mice (N=12), 1 to 2×10^6 tumor cells are inoculated subcutaneously, forming a group of 3 mice for each tumor cell line (A549 human lung adenocarcinoma model; H460 human lung carcinoma model; HCT116 human colorectal carcinoma model; U87MG human glioblastoma model).
(§2) When the tumors reach a volume of between 0.5 and 1 cm, the compound of Example 3 (200 μl) solubilized at 10 nmol/ml in phosphate buffer solution (PBS) is injected intravenously.
(§3) Under gas anesthesia, 5 acquisitions are carried out at various times of the experiment (2, 4, 6, 8 and 24 hours) using a Caliper IVIS Lumina II apparatus (ex=680 nm; em=720 nm). In parallel, blood samples are taken.
(§4) After the animals are euthanized by cervical dislocation, the organs (kidney, liver, spleen, lung, tumor, blood, muscle, heart, intestine) are taken and ex vivo acquisition is carried out (Lumina II: ex=680 nm; em=720 nm).

For data set [3], the system named is A549 human lung adenocarcinoma model. The data set is described as above. The format is in vivo, mouse. As to conditions: A549 xenograft in Swiss nude mice, 2 nmol i.v., t24h. The procedure: as §1, §2, §3, §4
Data set [4] has as its system HCT116 human colorectal carcinoma model. Described as above. The following applies: HCT116 xenograft in Swiss nude mice, 2 nmol i.v., t24h. The data set is classed as in vivo, mouse. The procedure:
as §1, §2, §3, §4

The test system of data set [5] is H460 human lung carcinoma model. The description is as above. The data set is classed as in vivo, mouse. As to conditions: H460 xenograft in Swiss nude mice, 2 nmol i.v., t24h. The procedure:
as §1, §2, §3, §4

The test system of data set [6] is A549, H460, HCT116, U87MG tumors. The data set can be described thus: Tumor fixation kinetics and ex vivo biodistribution, results stated across the tumor models. The data set is classed as in vivo, mouse. The procedure: as §1, §2, §3, §4
The nature of data set [7]: Plasma pharmacokinetics after intravenous injection. The format is in vivo, mouse. Also noted: distribution volume: unit not given here. The following applies: female Swiss nude mice, 2 nmol/animal. The procedure: In female Swiss nude mice (N=18), the compound of Example 3 solubilized to 10 nmol/ml in 0.9% NaCl solution is injected intravenously (200 μl) into the caudal vein. Blood is collected at various times (5 and 30 minutes then 2, 4, 8 and 24 hours; 3 mice/sample time) and, after centrifugation, the supernatant plasma is transferred to heparinized tubes. The sample is then diluted in 50 μl of a 20 mM ammonium formate/acetonitrile/formic acid 50/50/0.1 buffer mixture to be analyzed by UPLC-MS/MS, ESI+.

Data set [8] relates to U87MG (human glioblastoma) tumor cells. The data set can be described thus: Interaction with tumor development, bioluminescence. The format is in vivo. The procedure: In the right rear paw of Swiss nude mice (N=12), 3×10^6 U87MG (human glioblastoma) tumor cells are inoculated subcutaneously. When the tumor reaches a volume of 0.5 cm, luciferin (2 mg/mouse) is injected intraperitoneally in order to carry out bioluminescence acquisition and quantification at D0.
The animals are divided into 3 groups of 4 to form a control group with no injection; a group receiving a single intravenous injection of the compound of Example 3 (2 nmol in 200 μl); and a group receiving a weekly intravenous injection for 4 weeks of the compound of Example 3 (2 nmol in 200 μl). Lastly, bioluminescence acquisition and quantification are carried out 3 times per week after the intraperitoneal injection of luciferin.

For orientation: half-life means how long it takes for the measured level to halve. As a reminder, the clearance is a measure of how efficiently the substance is removed, as volume per time. Turning to `CC[N+]1=C(/C=C/C=C/C=C2/N(CCCCCC(=O)NCc3ccc4c(c3)Cc3cc(OCCCNc5cc(C)ccn5)ccc3CC4CC(=O)O)c3ccc4c(S(=O)(=O)O)cc(S(=O)(=O)O)cc4c3C2(C)C)C(C)(C)c2c1ccc1c(S(=O)(=O)O)cc(S(=O)(=O)O)cc21` (centres unmarked) [Example 3, Cy™ 5.5 Conjugate of the Compound of Preparation 1], the “targeting of neoplastic lesions formed in situ” value in data set [1] is given as “strong potential of targeting”. Moreover, the tumor/healthy tissue ratio is on record as 3.5 in data set [2], 2.3 in data set [3], 2 in data set [4] and 1.66 in data set [5]. In data set [6] (ex vivo, 24 hours after injection), the “biodistribution in the principal organs” value is “high specificity of the probe for the tumor”. For the same compound, the “signal of tumor volume relative to muscle tissue” value in data set [6] (ex vivo, 24 hours after injection, on average) was 12 times. In addition, the tumor/kidney ratio in data set [6] (ex vivo, t24h) is listed as 2. Moreover, the “visibility of targeted tumors by fluorescence imaging” value in data set [6] (whatever cancer line, 2 nmol i.v., 24 hours post-injection) is recorded as “clearly visible”. The distribution volume in data set [7] is 1. The half-life in data set [7] (mouse, plasma) is 15 h. The clearance in data set [7] (mouse, plasma, read-out: plasma clearance rate) was 0.8 mL/min/kg. Moreover, in data set [8] (U87MG in Swiss nude mice, control, single i.v. injection, or weekly i.v. injection for 4 weeks, 2 nmol), the “tumor growth by bioluminescence” value is reported as “identical for the three groups”. Besides, the “anti- or pro-angiogenic effect” value in data set [8] (single or multiple injections, 2 nmol/mouse) was “No anti- or pro-angiogenic effect is observed”.

For the origin of these results see US9278143B2, “Imaging agents, process for the preparation thereof and pharmaceutical compositions containing same” (CENTRE NATIONAL DE LA RECHERCHE SCIENTIFIQUE (CNRS), priority 2011, dated 2016).
